Results on 10 compounds are retold here after patent US9074014B2 (Ipsen Pharma S.A.S., priority 2008, dated 2015).

Data set [1] is described as follows: Human plasma half-life assay. In kind it is in vitro ADME. The settings on record: human plasma, 37° C., LC-MS; read-out: Human Plasma T½ (converted). On the procedure:
(§1) B. Human and Rat Plasma Half-Life Assay
(§2) 50 μL was removed at various times, like at 0, 1, 2, 3, 4, 8, 24, 32, 48, 56, 72 hours, mixed with 5 μL formic acid and 150 μL acetonitrile in a microcentrifuge tube, vertexed, and centrifuged for 10 minutes at 10K rpm. The supernatant was transferred to an injection vial and analyzed by LC-MS. The LC-MS system consisted of an API4000 mass spectrometer with an ESI probe. Positive ion mode and full scan detection were used. HPLC separation was carried out on a Luna 3μ C8 (2), 2×30 mm column with a gradient from 90% A to 90% B in 10 minutes at a flow rate of 0.3 ml/min. Buffer A was 1% formic acid in water and buffer B was 1% formic acid acetonitrile.

Data set [2] can be described thus: Rat plasma half-life assay. The class given is in vitro ADME. The settings on record: rat plasma, 37° C., LC-MS; read-out: Rat Plasma T½ (converted). On the procedure:
as §1, §2

Where a SMILES comes first, the peptide text is derived from it. Where no end group is shown, it is not given here. [ ]: non-standard residue; d: D form. NMeY = CN[C@@H](Cc1ccc(O)cc1)C(=O)O; Ac6c = NC1(C(=O)O)CCCCC1; Nle = CCCC[C@H](N)C(=O)O; Ac5c = NC1(C(=O)O)CCCC1; Aib = CC(C)(N)C(=O)O

As to `CC[C@H](C)[C@H](NC(=O)[C@H](CCCCN)NC(=O)[C@H](CC(=O)O)NC(=O)[C@H](CCSC)NC(=O)[C@H](C)NC(=O)C(C)(C)NC(=O)[C@H](CO)NC(=O)[C@H](Cc1ccc(O)cc1)NC(=O)[C@H](CC(=O)O)NC(=O)[C@H](CO)NC(=O)[C@@H](NC(=O)[C@H](Cc1ccccc1)NC(=O)[C@@H](NC(=O)CNC(=O)[C@H](CCC(=O)O)NC(=O)C(C)(C)NC(=O)[C@@H](N)Cc1ccc(O)cc1)[C@@H](C)O)[C@@H](C)CC)C(=O)N[C@@H](Cc1c[nH]cn1)C(=O)N[C@@H](CCC(N)=O)C(=O)N[C@@H](CCC(N)=O)C(=O)N[C@@H](CC(=O)O)C(=O)N[C@@H](Cc1ccccc1)C(=O)N[C@H](C(=O)N[C@@H](CC(N)=O)C(=O)N[C@@H](Cc1c[nH]c2ccccc12)C(=O)N[C@@H](CC(C)C)C(=O)N[C@@H](CC(C)C)C(=O)N[C@@H](C)C(=O)N[C@@H](CCC(N)=O)C(=O)N[C@@H](CCCCN)C(N)=O)C(C)C` [Example 20, (Aib^2, 12)hGIP(1-30)-NH2] (H-Y[Aib]EGTFISDYS[Aib]AMDKIHQQDFVNWLLAQK-NH2; N-terminus assumed), the half-life at 0.1 mg/ml in data set [1] is 25.4 h; in data set [2], 42 h.

On to `CC[C@H](C)[C@H](NC(=O)[C@H](CCCCN)NC(=O)[C@H](CC(=O)O)NC(=O)[C@H](CCSC)NC(=O)[C@H](C)NC(=O)C1(NC(=O)[C@H](CO)NC(=O)[C@H](Cc2ccc(O)cc2)NC(=O)[C@H](CC(=O)O)NC(=O)[C@H](CO)NC(=O)[C@@H](NC(=O)[C@H](Cc2ccccc2)NC(=O)[C@@H](NC(=O)CNC(=O)[C@H](CCC(=O)O)NC(=O)C(C)(C)NC(=O)[C@@H](N)Cc2ccc(O)cc2)[C@@H](C)O)[C@@H](C)CC)CCCC1)C(=O)N[C@@H](Cc1c[nH]cn1)C(=O)N[C@@H](CCC(N)=O)C(=O)N[C@@H](CCC(N)=O)C(=O)N[C@@H](CC(=O)O)C(=O)N[C@@H](Cc1ccccc1)C(=O)N[C@H](C(=O)N[C@@H](CC(N)=O)C(=O)N[C@@H](Cc1c[nH]c2ccccc12)C(=O)N[C@@H](CC(C)C)C(=O)N[C@@H](CC(C)C)C(=O)N[C@@H](C)C(=O)N[C@@H](CCC(N)=O)C(=O)N[C@@H](CCCCN)C(N)=O)C(C)C` [Example 13, (Aib^2, A5c^12)hGIP(1-30)-NH2] (H-Y[Aib]EGTFISDYS[Ac5c]AMDKIHQQDFVNWLLAQK-NH2; N-terminus assumed), for which the half-life at 0.1 mg/ml in data set [1] is 35.4 h; in data set [2] it was more than 48 h.

Turning to “Y[Aib]EGTF[Ac6c]SDYSIA[Nle]DKIHQQDFVNWL[Ac6c]AQKGKKNDWKHNITQ-OH [Example 27, (Aib^2, A6c^7, 27, Nle^14)hGIP(1-42)-OH]”, the half-life at 0.1 mg/ml in data set [1] is more than 48 h; in data set [2] it was 9.3 h.

Consider “H-[NMeY][Aib]EGTFISDY[Ac5c]IA[Nle]DKIHQQDFVNWLLAQKGKKNDWKHNITQ-OH [Example 113, (NMe-Tyr^1, Aib^2, A5c^11, Nle^14)hGIP(1-42)-OH]”, for which the half-life at 0.1 mg/ml in data set [1] is 61.9 h; in data set [2] it was 27 h.

`CC[C@H](C)[C@H](NC(=O)[C@H](CCCCN)NC(=O)[C@H](CC(=O)O)NC(=O)C1(NC(=O)[C@H](C)NC(=O)[C@@H](NC(=O)C2(NC(=O)[C@H](Cc3ccc(O)cc3)NC(=O)[C@H](CC(=O)O)NC(=O)[C@H](CO)NC(=O)[C@@H](NC(=O)[C@H](Cc3ccccc3)NC(=O)[C@@H](NC(=O)CNC(=O)[C@@H]3CC(O)CN3C(=O)[C@H](C)NC(=O)[C@@H](N)Cc3ccc(O)cc3)[C@@H](C)O)[C@@H](C)CC)CCCC2)[C@@H](C)CC)CCCCC1)C(=O)N[C@@H](Cc1c[nH]cn1)C(=O)N[C@@H](CCC(N)=O)C(=O)N[C@@H](CCC(N)=O)C(=O)N[C@@H](CC(=O)O)C(=O)N[C@@H](Cc1ccccc1)C(=O)N[C@H](C(=O)N[C@@H](CC(N)=O)C(=O)N[C@@H](Cc1c[nH]c2ccccc12)C(=O)N[C@@H](CC(C)C)C(=O)N[C@@H](CC(C)C)C(=O)N[C@@H](C)C(=O)N[C@@H](CCC(N)=O)C(=O)N[C@@H](CCCCN)C(=O)NCC(=O)N[C@@H](CCCCN)C(=O)N[C@@H](CCCCN)C(=O)N[C@@H](CC(N)=O)C(=O)N[C@@H](CC(=O)O)C(=O)N[C@@H](Cc1c[nH]c2ccccc12)C(=O)N[C@@H](CCCCN)C(=O)N[C@@H](Cc1c[nH]cn1)C(=O)N[C@@H](CC(N)=O)C(=O)N[C@H](C(=O)N[C@H](C(=O)N[C@@H](CCC(N)=O)C(=O)O)[C@@H](C)O)[C@@H](C)CC)C(C)C` (some centres unmarked) [Example 88, (4Hyp^3, A5c^11, A6c^14)hGIP(1-42)-OH]: the half-life at 0.1 mg/ml in data set [1] is more than 48 h; in data set [2] it was 4.4 h.

Turning to “Y[Aib]EGTFISDY[Aib]IAMDKIHQQDFVNWLLAQKGKKNDWKHNITQ-OH [Example 1, (Aib^2, 11)hGIP(1-42)-OH]”, the half-life at 0.1 mg/ml in data set [1] was more than 48 h; in data set [2] it was 3.9 h.

On to `CCCC[C@H](NC(=O)C(C)(C)NC(=O)[C@@H](NC(=O)[C@H](CO)NC(=O)[C@H](Cc1ccc(O)cc1)NC(=O)[C@H](CC(=O)O)NC(=O)[C@H](CO)NC(=O)[C@@H](NC(=O)[C@H](Cc1ccccc1)NC(=O)[C@@H](NC(=O)CNC(=O)[C@@H]1C(O)CCN1C(=O)[C@H](C)NC(=O)[C@@H](N)Cc1ccc(O)cc1)[C@@H](C)O)[C@@H](C)CC)[C@@H](C)CC)C(=O)N[C@@H](CC(=O)O)C(=O)N[C@@H](CCCCN)C(=O)N[C@H](C(=O)N[C@@H](Cc1c[nH]cn1)C(=O)N[C@@H](CCC(N)=O)C(=O)N[C@@H](CCC(N)=O)C(=O)N[C@@H](CC(=O)O)C(=O)N[C@@H](Cc1ccccc1)C(=O)N[C@H](C(=O)N[C@@H](CC(N)=O)C(=O)N[C@@H](Cc1c[nH]c2ccccc12)C(=O)N[C@@H](CC(C)C)C(=O)N[C@@H](CC(C)C)C(=O)N[C@@H](C)C(=O)N[C@@H](CCC(N)=O)C(=O)N[C@@H](CCCCN)C(=O)NCC(=O)N[C@@H](CCCCN)C(=O)N[C@@H](CCCCN)C(=O)N[C@@H](CC(N)=O)C(=O)N[C@@H](CC(=O)O)C(=O)N[C@@H](Cc1c[nH]c2ccccc12)C(=O)N[C@@H](CCCCN)C(=O)N[C@@H](Cc1c[nH]cn1)C(=O)N[C@@H](CC(N)=O)C(=O)N[C@H](C(=O)N[C@H](C(=O)N[C@@H](CCC(N)=O)C(=O)O)[C@@H](C)O)[C@@H](C)CC)C(C)C)[C@@H](C)CC` (some centres unmarked) [Example 70, (3Hyp^3, Aib^13, Nle^14)hGIP(1-42)-OH], for which the half-life at 0.1 mg/ml was more than 33 h in data set [1] and 1.5 h in data set [2].

Regarding “YAPGTFISDYSI[Aib][Nle]DKIHQQDFVNWLLAQKGKKNDWKHNITQ-OH [Example 62, (Pro^3, Aib^13, Nle^14)hGIP(1-42)-OH]”, the half-life at 0.1 mg/ml in data set [1] was 11.4 h; in data set [2], 1.4 h.

On to “Y[Aib]EGTF[Ac5c]SDYSIA[Ac6c]DKIHQQDFVNWLLAQKGKKNDWKHNITQ-OH [Example 44, (Aib^2, A5c^7, A6c^14)hGIP(1-42)-OH]”, for which the values for the half-life at 0.1 mg/ml in data set [1] and in data set [2] were 9.5 h and 7.5 h, respectively.

Regarding “Y[Aib]EGTF[Ac6c]SDYSIA[Nle]DKIHQQDFVNWLLAQK[Aib]KKNDWKHNITQ-OH [Example 24, (Aib^2, 31, A6c^7, Nle^14)hGIP(1-42)-OH]”, the half-life at 0.1 mg/ml in data set [1] is more than 48 h; in data set [2] it was 24.8 h.
